Results published in patent publication US8247552B2, “Analogs of dehydrophenylahistins and their therapeutic use” (Nereus Pharmaceuticals, Inc., priority 2002, dated 2012).
≈ marks a conversion by molar mass, not a printed value.

Legend:
[1] = tested on: MES-SA/Dx5 (Taxol resistant) human uterine sarcoma; assay: Cytotoxicity / growth inhibition in multidrug resistant uterine sarcoma cells; assay type: cell-based; conditions: versus MES-SA
Procedure: 1) Human Uterine Sarcoma Tumor Cell Line Pair: MES-SA (Taxol Sensitive) and MES-SA/Dx5 (Taxol Resistant).
HL-60 and HL-60/MX2 cells were both seeded at 5×10^4 cells/well in 90 μl complete media into 96 well plates on the day of compound addition. […] Ten μl volumes of the 10× serial dilutions were added to the test wells in triplicate and the plates returned to the incubator for 48 hours.
Resazurin dye in medium without cells was used to determine the background, which was subtracted from the data for all experimental wells.
The multidrug resistant MES-SA/Dx5 tumor cell line was derived from the human uterine sarcoma MES-SA tumor cell line and expresses elevated P-Glycoprotein (P-gp), an ATP dependent efflux pump. […] Paclitaxel, a known substrate of the P-gp pump was included as a control.

[2] = tested on: HL-60 human acute promyelocytic leukemia (Mitoxantrone-sensitive); assay: Cytotoxicity / growth inhibition in sensitive leukemia cells; assay type: cell-based; conditions: Table 20, mean of two independent experiments, 48 hours
Procedure: (§4) HL-60 and HL-60/MX2 cells were both seeded at 5×10^4 cells/well in 90 μl complete media into 96 well plates on the day of compound addition. 20 mM stock solutions of the compounds were prepared in 100% DMSO and stored at −80° C. […] Ten μl volumes of the 10× serial dilutions were added to the test wells in triplicate and the plates returned to the incubator for 48 hours.

[3] = tested on: HL-60/MX-2 (Mitoxantrone-resistant); assay: Cytotoxicity / growth inhibition in resistant leukemia cells; assay type: cell-based, human
Procedure: as §4

HT-29 human colon cells = assay: Tumor cytotoxicity / cell growth inhibition assay, resazurin fluorescence, 48 h; assay type: cell-based
Cytotoxicity, resazurin = assay type: cell-based; conditions: human, CCD-27sk normal fibroblasts; Table 12; CCD-27sk Fibroblast
Text: (§1) Cells were maintained at subconfluent densities in their respective culture media.

[4] = tested on: OVCAR-3 (human ovarian tumor); assay: Cytotoxicity, resazurin; assay type: cell-based; conditions: Table 12, OVCAR-3 Ovary
Text: as §1

[5] = tested on: poly(ADP-ribose) polymerase (PARP) in Jurkat cells; assay: Cleavage of poly(ADP-ribose) polymerase by western blotting; assay type: cell-based, human; conditions: 100 nM, 10 hours after exposure
[6] = tested on: DU-145 human prostate tumor; assay: DU-145 Human Prostate Tumor Xenograft Model; assay type: in vivo, mice; conditions: KPU-2 plus taxotere, treatment Days 20-27
Procedure: Selected novel compounds were administered as monotherapy via the intraperitoneal (i.p.) route at the doses indicated for the individual study; for the combination studies the selected reference chemotherapy agents were injected 15-30 min prior to the compound.
When the tumors reached ˜5 mm×5 mm (at about 13-17 days) the animals were matched into treatment and control groups. The remainder of the study proceeded as for the HT-29 model, using taxotere as the standard chemotherapy agent.
In this model unless otherwise noted for the individual study, test compounds were administered via the intraperitoneal route on Days 1, 3, 5, 8 and 11 (q3dx5); taxotere was administered intravenously on Days 1, 3 and 5 (q2dx3).

MCF-7 human breast tumor = assay: MCF-7 Human Breast Tumor Xenograft Model; assay type: in vivo, mice; conditions: combination with taxotere
Procedure: Animals used were (exceptions are indicated for individual studies): female nude mice (nu/nu) between 5 and 6 weeks of age (˜20 g, Harlan); group size was 9-10 mice per group unless otherwise indicated.
Female nude mice (˜20 g) were implanted s.c. with 21-day release estrogen (0.25 mg) pellets 24 hours prior to the s.c. implantation with MCF-7 tumor fragments (harvested from s.c. tumors in nude mice hosts). The study then proceeded as described for the HT-29 model, using taxotere as the standard chemotherapy agent.
In this model unless otherwise noted for the individual study, the novel compounds were injected via the intraperitoneal route daily on Days 1-5, inclusive (qdx5); taxotere was administered intravenously on Days 1, 3 and 5 (qodx3).
The doses of the compounds were administered on Days 1, 2, 3, 4, and 7; Taxotere was administered on Days 1, 3 and 7.

[7] = tested on: MDA-231 human breast tumor; assay: MDA-231 Human Breast Tumor Orthotopic (mammary fat pad) Xenograft Model; assay type: in vivo, mice; conditions: KPU-2 7.5 mg/kg ip q3dx5 with paclitaxel 16 mg/kg ip qdx5; three weeks
Procedure: The animals used were: female nude mice (nu/nu) (MDA-231 study) or B6D2F1 (B16-F10 studies) mice between 5 and 6 weeks of age (˜20 g, Harlan); group size was 10 mice per group unless otherwise indicated.
NPI compounds were administered as monotherapy via the intraperitoneal route at the doses indicated for the individual study; for the combination studies the selected reference chemotherapy agents were injected 15-30 min prior to the NPI compound.
Female nude mice were injected in the mammary fat pad with 2×10^6 MDA-231 cells harvested from in vitro cell culture. When the tumor size reached 5 mm×5 mm (about 14-28 days) the animals were matched into treatment and control groups. The study then proceeded as described for the HT-29 model, using paclitaxel as the standard chemotherapy agent.
In this model unless otherwise noted for the individual study, the test compounds were administered via the intraperitoneal route on Days 1, 4, 8, 11 and 15 (q3dx5); paclitaxel was administered via the intraperitoneal route on Days 1-5 (qdx5).
This model involves the placement of the human tumor tissue into the mouse mammary fat pad, a surrogate of the natural environment. In this manner the possibility of a positive effect due to a specific action on the subcutaneous vascular bed is avoided.

Trichophyton rubrum = assay: Antifungal susceptibility testing (NCCLS M38-A), MIC/MFC; assay type: cell-based; conditions: dermatophyte isolates
Procedure: Specifically, disclosed compounds were evaluated alongside commercially available microtubulin inhibitors as well as recognized antifungal agents.
(§2) Microorganisms against which these compounds were tested included: Candida albicans, Candida glabrata, Aspergillus fumigatus, Trichophyton rubrum, Trichophyton mentagrophytes, Epidermophyton floccosum. With the exception of Candida glabrata (one isolate), two isolates of each species were tested.
(§3) The minimum lethal concentration (MLC) was determined by plating […] from the MIC concentration and each concentration above the MIC. […] When a MIC was obtained, a minimum fungicidal concentration (MFC) was determined to assess the fungistatic/fungicidal nature of the compound.

[8] = tested on: human prostate tumor cells; assay: Induction of apoptosis, morphological changes; assay type: cell-based
Text: The characteristic signs of apoptotic cell death include cell membrane blebbing, disruption of nuclei, cell shrinkage and condensation and finally cell death, very distinctive from necrotic cell death. […] A similar finding was also clear in the treatment of HuVEC cells with KPU-2.

[9] = tested on: panel of 60 different kinases; conditions: ATP 10 μM; four kinases
HuVEC cells = assay: Microtubule (tubulin) depolymerization, α-tubulin staining; conditions: 2 μM, thirty minutes exposure
Procedure: The plates were returned to the incubator for 2 days.
20 mM stock solutions of compounds were prepared in 100% DMSO and stored at −80° C. 400× concentrated dilutions of the compounds were prepared in 100% DMSO. 5 μl volumes of the dilutions were added to individual wells resulting in a final concentration of 20 nM. […] The plates were returned to the incubator for 30 minutes.
The cells were rinsed in dPBS before fixation in 10% (v/v) neutral buffered formalin for 10 minutes at room temperature. Following fixation, α-tubulin was visualized by indirect immunofluorescence. Specifically, the cells were permeabilized in 0.2% (v/v) triton X-100/dPBS for 10 minutes. The cells were washed prior to transferring the coverslips to a humidified chamber, the coverslips were blocked for two hours in antibody buffer [2% (w/v) BSA/0.1% (v/v) Tween 20/dPBS]. The coverslips were incubated with 50 μl of 0.1 μg/ml mouse α-tubulin (Molecular Probes) in antibody buffer for 1 hour before washing and incubation with 50 μl of 1 μg/ml goat anti-mouse FITC (Jackson ImmunoResearch Laboratories) for one hour in the dark. Finally, the cells were washed and treated with 2 μg/ml DAPI (Molecular Probes) for 10 minutes before rinsing in H2O and mounting with Vectashield (Vector Labs) mounting media. The cells were imaged using a 60× oil immersion objective on an upright microscope (Olympus BX51). The images were digitally captured using a CCD camera and Magnafire 2.0 software (Olympus). Post image processing was performed in Photoshop Elements 2.0 (Adobe) and in Microsoft Powerpoint.
Human umbilical vein endothelial cells (HuVECs; Cambrex CC2519A) were maintained at subconfluent densities in EGM-2 (Cambrex) media. […] The plates were returned to the incubator for 2 days.
Stock (20 mM) solutions of the test compounds were prepared in 100% DMSO. 400× concentrated dilutions of the compounds were prepared in 100% DMSO. 5 μl volumes of the dilutions were added to individual wells resulting in a final concentration of 200 nM. […] The plates were returned to the incubator for 30 minutes.
The cells were rinsed in dPBS before fixation in 10% (v/v) neutral buffered formalin for 10 minutes at room temperature. Following fixation, α-tubulin was visualized by indirect immunofluorescence. Specifically, the cells were permeabilized in 0.2% (v/v) triton X-100/dPBS for 10 minutes. The cells were washed prior to transferring the coverslips to a humidified chamber, the coverslips were blocked for two hours in antibody buffer (2% (w/v) BSA/0.1% (v/v) Tween 20/dPBS). The coverslips were incubated with 50 μl of 0.1 μg/ml mouse α-tubulin (Molecular Probes) in antibody buffer for 1 hour before washing and incubation with 50 μl of 1 μg/ml goat anti-mouse FITC (Jackson ImmunoResearch Laboratories) for one hour in the dark. Finally, the cells were washed and treated with 2 μg/ml DAPI (Molecular Probes) for 10 minutes before rinsing in H2O and mounting with Vectashield (Vector Labs) mounting media. The cells were imaged using a 60× oil immersion objective on an upright microscope (Olympus BX51). The images were digitally captured using a CCD camera and Magnafire 2.0 software (Olympus). Post image processing was performed in Photoshop Elements 2.0 (Adobe) and in Microsoft Powerpoint.

Epidermophyton floccosum = assay: Antifungal susceptibility testing (NCCLS M38-A), MIC/MFC; assay type: cell-based; conditions: Table 24, read-out: E. floccosum isolate #2 (column head empty, before MFC)
Procedure: Specifically, disclosed compounds were evaluated alongside commercially available microtubulin inhibitors as well as recognized antifungal agents. […].
as §2
Drug concentrations were 0.03-16 μg/ml for the investigational compounds, 0.015-8 μg/ml for itraconazole and griseofulvin.
as §3, with “compound. […] The compound is scored as fungistatic if the cells are able to resume growth and fungicidal if no regrowth is possible because the compound had killed the organisms.” for “compound.”

O=C1c2c(O)ccc(O)c2C(=O)c2c(NCCNCCO)ccc(NCCNCCO)c21 [mitoxantrone, Mitoxantrone]
reduced susceptibility of MES-SA/DX5 cell line [1]: 20 fold
EC50 [2]: 42 nM
EC50 ([3]; Homo sapiens, HL60/MX2, Table 20, mean of two independent experiments, 48 hours): 1100 nM
loss of efficacy in the resistant HL-60/MX-2 cell line ([3]; versus HL-60, Example 10): 24 fold
times less active against resistant HL-60/MX2 cells ([3]; versus HL-60, Example 11): ~26 times

CC(C)(C)c1[nH]cnc1/C=c1\[nH]c(=O)/c(=C/c2ccccc2)[nH]c1=O [KPU-2, tBu-dehydrophenylahistin]
cytotoxic activity against HT-29 cells (HT-29 human colon cells): active in the low nanomolar range
cytotoxicity at 48 h (Cytotoxicity, resazurin): 64.3%
IC50 [4]: > 20 nM
cleavage of PARP [5]: induced cleavage of PARP
apparent TGI of combination therapy [6]: > 58%
effect on estimated tumor growth with taxotere (MCF-7 human breast tumor): appeared to be the most effective
inhibition of tumor growth [7]: significant inhibition of tumor growth in the combination therapy group
antifungal potency compared with griseofulvin (Trichophyton rubrum): equivalent in potency or in some cases more potent than griseofulvin
morphological changes of apoptosis [8]: induced the typical morphological changes associated with early stages of apoptosis
IC50 against kinases inhibited >50% in primary screen [9]: low micromolar range
microtubule depolymerization in HuVEC cells (HuVEC cells): induced microtubule depolymerization

COC1=CC(=O)C[C@@H](C)[C@]12Oc1c(Cl)c(OC)cc(OC)c1C2=O [griseofulvin, Griseofulvin]
MFC (Epidermophyton floccosum): 4 µg/mL (≈ 11.3 µM)
